Experimental data taken from ChEMBL document CHEMBL4616633, “Citral Inhibits the Inflammatory Response and Hyperalgesia in Mice: The Role of TLR4, TLR2/Dectin-1, and CB2 Cannabinoid Receptor/ATP-Sensitive K+ Channel Pathways” (J Nat Prod, 2020).
The source made the active and inactive calls. No cut-off for these calls is given here.

What was measured:
Mus musculus [1] = test: Inhibition of carrageenan-induced paw edema in Swiss mouse at 0.5 mg/kg, sc pretreated for 1 hr followed by carrageenan-stimulation and measured after 6 hrs relative to control; assay type: functional
Mus musculus [2] = test: Inhibition of carrageenan-induced thermal allodynia in Swiss mouse at 0.5 mg/kg, sc pretreated for 1 hr followed by carrageenan-stimulation and measured after 6 hrs relative to control; assay type: functional
Mus musculus [3] = test: Inhibition of zymosan-induced TLR2/Dectin-1 Signaling Pathway assessed as reduction in paw edema in Swiss mouse at 0.5 mg/kg, sc pretreated for 1 hr followed by […] and measured after 48 hrs relative to control; assay type: functional
Mus musculus [4] = test: Inhibition of carrageenan-induced thermal allodynia in Swiss mouse at 1 mg/kg, ip pretreated for 30 mins followed by carrageenan-stimulation and measured after 6 hrs; assay type: functional, organism-based
Mus musculus [5] = test: Inhibition of carrageenan-induced paw edema in Swiss mouse at 1 mg/kg, ip pretreated for 30 mins followed by carrageenan-stimulation and measured after 6 hrs; assay type: functional, organism-based

C[C@@H]1C[C@H]2[C@@H]3CCC4=CC(=O)C=C[C@]4(C)[C@@]3(F)[C@@H](O)C[C@]2(C)[C@@]1(O)C(=O)CO [DEXAMETHASONE]
inhibition in vivo at 0.5 mg/kg (Mus musculus [1]): 82%
inhibition in vivo at 0.5 mg/kg (Mus musculus [2]): 72%
inhibition in vivo at 0.5 mg/kg (Mus musculus [3]): 45%

COc1ccc(C(=O)c2c(C)n(CCN3CCOCC3)c3cc(I)ccc23)cc1
inhibition (Mus musculus [4]): inactive
inhibition (Mus musculus [5]): inactive
